Measured values reported in the supplement of paper PMC10307832.

What was measured:
Experiment in all cases: relative viability (nuclei count vs DMSO), 5 days (fraction); higher = more cells survive
COR-L23 = tested on: COR-L23
How it was run: (§1)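 Values are medians from duplicate plates. Each reflects relative viability, defined as the nuclei count of treated wells over that of vehicle wells. Lung cancer cell lines in 1536-well plates were pin-tool dosed one day after seeding with one drug alone or with a fixed anchor-drug dose plus five library-drug doses (not always all listed) in √10 steps, then fixed, stained and imaged at 4× after 5 days.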

NCI-H1993 = tested on: NCI-H1993
How it was run: as §1

HOP-62 = tested on: HOP-62
How it was run: as §1

ABC-1 = tested on: ABC-1
How it was run: as §1

NCI-H3122 = tested on: NCI-H3122
How it was run: as §1

EMC-BAC-2 = tested on: EMC-BAC-2
How it was run: as §1

HARA = tested on: HARA
How it was run: as §1

NCI-H727 = tested on: NCI-H727
How it was run: as §1

NCI-H2228 = tested on: NCI-H2228
How it was run: as §1

NCI-H1792 = tested on: NCI-H1792
How it was run: as §1

PC-3 [JPC-3] = tested on: PC-3 [JPC-3]
How it was run: as §1

NCI-H2009 = tested on: NCI-H2009
How it was run: as §1

LU99A = tested on: LU99A
How it was run: as §1

SK-LU-1 = tested on: SK-LU-1
How it was run: as §1

NCI-H596 = tested on: NCI-H596
How it was run: as §1

A-427 = tested on: A-427
How it was run: as §1

SW 1573 = tested on: SW 1573
How it was run: as §1

LXF-289 = tested on: LXF-289
How it was run: as §1

SK-MES-1 = tested on: SK-MES-1
How it was run: as §1

LK-2 = tested on: LK-2
How it was run: as §1

NCI-H2170 = tested on: NCI-H2170
How it was run: as §1

NCI-H1944 = tested on: NCI-H1944
How it was run: as §1

**Q.** How did the relative viability (COR-L23; first compound 0.01 µM) turn out when `CC(C)Oc1cc(Nc2nc(N[C@@H](C)c3ccc(F)cn3)ncc2Cl)n[nH]1` [AZ23] + CC(C)C[C@H](NC(=O)[C@H](Cc1ccccc1)NC(=O)c1cnccn1)B(O)O [Bortezomib] (partner 0.002 µM) was run?
**A.** 0.921

**Q.** And the relative viability (COR-L23; first compound 0.03162 µM)?
**A.** 1.27

**Q.** And the relative viability (COR-L23; first compound 0.3162 µM)?
**A.** 1.04

**Q.** What about the relative viability (NCI-H1993; first compound 0.01 µM) of the same compound?
**A.** 0.911

**Q.** And the relative viability (NCI-H1993; first compound 0.3162 µM)?
**A.** 1.16

**Q.** And the relative viability (HOP-62; first compound 0.01 µM)?
**A.** 0.821

**Q.** What about the relative viability (HOP-62; first compound 0.03162 µM) of the same compound?
**A.** 0.517

**Q.** And the relative viability (HOP-62; first compound 0.3162 µM)?
**A.** 0.867

**Q.** What about the relative viability (ABC-1; first compound 0.01 µM) of the same compound?
**A.** 0.29

**Q.** What about the relative viability (ABC-1; first compound 0.03162 µM) of the same compound?
**A.** 0.269

**Q.** What about the relative viability (ABC-1; first compound 0.3162 µM) of the same compound?
**A.** 0.255

**Q.** And the relative viability (NCI-H3122; first compound 0.01 µM)?
**A.** 1.04

**Q.** And the relative viability (NCI-H3122; first compound 0.03162 µM)?
**A.** 1.02

**Q.** And the relative viability (NCI-H3122; first compound 0.3162 µM)?
**A.** 1.12

**Q.** And the relative viability (EMC-BAC-2; first compound 0.01 µM)?
**A.** 1.2

**Q.** And the relative viability (EMC-BAC-2; first compound 0.03162 µM)?
**A.** 1.11

**Q.** And the relative viability (EMC-BAC-2; first compound 0.3162 µM)?
**A.** 1.16

**Q.** What about the relative viability (HARA; first compound 0.01 µM) of the same compound?
**A.** 1.04

**Q.** And the relative viability (HARA; first compound 0.03162 µM)?
**A.** 1.1

**Q.** What about the relative viability (HARA; first compound 0.3162 µM) of the same compound?
**A.** 1.27

**Q.** And the relative viability (NCI-H727; first compound 0.01 µM)?
**A.** 0.855

**Q.** And the relative viability (NCI-H727; first compound 0.03162 µM)?
**A.** 0.855

**Q.** What about the relative viability (NCI-H727; first compound 0.3162 µM) of the same compound?
**A.** 0.867

**Q.** And the relative viability (NCI-H2228; first compound 0.01 µM)?
**A.** 1.49

**Q.** And the relative viability (NCI-H2228; first compound 0.03162 µM)?
**A.** 1.19

**Q.** What about the relative viability (NCI-H2228; first compound 0.3162 µM) of the same compound?
**A.** 0.84

**Q.** And the relative viability (NCI-H1792; first compound 0.01 µM)?
**A.** 1.27

**Q.** And the relative viability (NCI-H1792; first compound 0.03162 µM)?
**A.** 1.12

**Q.** What about the relative viability (NCI-H1792; first compound 0.3162 µM) of the same compound?
**A.** 1.06

**Q.** What about the relative viability (PC-3 [JPC-3]; first compound 0.01 µM) of the same compound?
**A.** 0.893

**Q.** What about the relative viability (PC-3 [JPC-3]; first compound 0.03162 µM) of the same compound?
**A.** 1.01

**Q.** What about the relative viability (PC-3 [JPC-3]; first compound 0.3162 µM) of the same compound?
**A.** 0.887

**Q.** And the relative viability (NCI-H2009; first compound 0.01 µM)?
**A.** 1.1

**Q.** What about the relative viability (NCI-H2009; first compound 0.03162 µM) of the same compound?
**A.** 1.06

**Q.** And the relative viability (NCI-H2009; first compound 0.3162 µM)?
**A.** 1.21

**Q.** What about the relative viability (LU99A; first compound 0.01 µM) of the same compound?
**A.** 1.13

**Q.** What about the relative viability (LU99A; first compound 0.03162 µM) of the same compound?
**A.** 1.2

**Q.** And the relative viability (LU99A; first compound 0.3162 µM)?
**A.** 1.13

**Q.** What about the relative viability (SK-LU-1; first compound 0.03162 µM) of the same compound?
**A.** 1.33

**Q.** What about the relative viability (SK-LU-1; first compound 0.3162 µM) of the same compound?
**A.** 1.26

**Q.** And the relative viability (NCI-H596; first compound 0.01 µM)?
**A.** 1.17

**Q.** What about the relative viability (NCI-H596; first compound 0.03162 µM) of the same compound?
**A.** 1.06

**Q.** And the relative viability (NCI-H596; first compound 0.3162 µM)?
**A.** 1.1

**Q.** And the relative viability (A-427; first compound 0.01 µM)?
**A.** 1.07

**Q.** And the relative viability (A-427; first compound 0.03162 µM)?
**A.** 1.11

**Q.** And the relative viability (A-427; first compound 0.3162 µM)?
**A.** 0.969

**Q.** What about the relative viability (SW 1573; first compound 0.01 µM) of the same compound?
**A.** 1.24

**Q.** What about the relative viability (SW 1573; first compound 0.03162 µM) of the same compound?
**A.** 1.2

**Q.** What about the relative viability (SW 1573; first compound 0.3162 µM) of the same compound?
**A.** 1

**Q.** What about the relative viability (LXF-289; first compound 0.01 µM) of the same compound?
**A.** 1.11

**Q.** And the relative viability (LXF-289; first compound 0.03162 µM)?
**A.** 1.05

**Q.** And the relative viability (LXF-289; first compound 0.3162 µM)?
**A.** 0.979

**Q.** Which results are given for `CC(C)Oc1cc(Nc2nc(N[C@@H](C)c3ccc(F)cn3)ncc2Cl)n[nH]1` [AZ23] + C[C@@H](Oc1cc(-c2cnn(C3CCNCC3)c2)cnc1N)c1c(Cl)ccc(F)c1Cl [Crizotinib] (partner 1 µM)?
**A.** relative viability (COR-L23; first compound 0.01 µM): 0.763; relative viability (COR-L23; first compound 0.03162 µM): 0.828; relative viability (COR-L23; first compound 0.3162 µM): 0.766; relative viability (SK-MES-1; first compound 0.01 µM): 1.02; relative viability (SK-MES-1; first compound 0.03162 µM): 1.14; relative viability (SK-MES-1; first compound 0.3162 µM): 0.938; relative viability (NCI-H1993; first compound 0.01 µM): 0.857; relative viability (NCI-H1993; first compound 0.3162 µM): 0.804; relative viability (HOP-62; first compound 0.01 µM): 0.992; relative viability (HOP-62; first compound 0.03162 µM): 0.912; relative viability (HOP-62; first compound 0.3162 µM): 1.08; relative viability (ABC-1; first compound 0.01 µM): 0.752; relative viability (ABC-1; first compound 0.03162 µM): 1.27; relative viability (ABC-1; first compound 0.3162 µM): 1.25; relative viability (NCI-H3122; first compound 0.01 µM): 0.28; relative viability (NCI-H3122; first compound 0.03162 µM): 0.262; relative viability (NCI-H3122; first compound 0.3162 µM): 0.305; relative viability (EMC-BAC-2; first compound 0.01 µM): 0.804; relative viability (EMC-BAC-2; first compound 0.03162 µM): 0.817; relative viability (EMC-BAC-2; first compound 0.3162 µM): 0.777; relative viability (HARA; first compound 0.01 µM): 1.2; relative viability (HARA; first compound 0.03162 µM): 0.904; relative viability (HARA; first compound 0.3162 µM): 0.983; relative viability (LK-2; first compound 0.03162 µM): 0.223; relative viability (LK-2; first compound 0.3162 µM): 0.216; relative viability (NCI-H727; first compound 0.01 µM): 1.01; relative viability (NCI-H727; first compound 0.03162 µM): 1.14; relative viability (NCI-H727; first compound 0.3162 µM): 0.648; relative viability (NCI-H2228; first compound 0.01 µM): 0.64; relative viability (NCI-H2228; first compound 0.03162 µM): 0.449; relative viability (NCI-H2228; first compound 0.3162 µM): 0.33; relative viability (NCI-H1792; first compound 0.01 µM): 1.47; relative viability (NCI-H1792; first compound 0.03162 µM): 1.27; relative viability (NCI-H1792; first compound 0.3162 µM): 1.01; relative viability (PC-3 [JPC-3]; first compound 0.01 µM): 1.3; relative viability (PC-3 [JPC-3]; first compound 0.03162 µM): 1.07; relative viability (PC-3 [JPC-3]; first compound 0.3162 µM): 0.91; relative viability (NCI-H2009; first compound 0.01 µM): 1.05; relative viability (NCI-H2009; first compound 0.03162 µM): 1.2; relative viability (NCI-H2009; first compound 0.3162 µM): 1.06; relative viability (LU99A; first compound 0.01 µM): 0.617; relative viability (LU99A; first compound 0.03162 µM): 0.563; relative viability (LU99A; first compound 0.3162 µM): 0.6; relative viability (SK-LU-1; first compound 0.01 µM): 0.94; relative viability (SK-LU-1; first compound 0.03162 µM): 1.05; relative viability (SK-LU-1; first compound 0.3162 µM): 0.978; relative viability (NCI-H596; first compound 0.01 µM): 0.97; relative viability (NCI-H596; first compound 0.03162 µM): 1.05; relative viability (NCI-H596; first compound 0.3162 µM): 0.896; relative viability (A-427; first compound 0.01 µM): 0.942; relative viability (A-427; first compound 0.03162 µM): 0.951; relative viability (A-427; first compound 0.3162 µM): 0.754; relative viability (SW 1573; first compound 0.01 µM): 0.915; relative viability (SW 1573; first compound 0.03162 µM): 0.997; relative viability (SW 1573; first compound 0.3162 µM): 0.727; relative viability (NCI-H2170; first compound 0.01 µM): 1.67; relative viability (NCI-H2170; first compound 0.03162 µM): 1.45; relative viability (NCI-H2170; first compound 0.3162 µM): 1.42; relative viability (LXF-289; first compound 0.01 µM): 0.862; relative viability (LXF-289; first compound 0.03162 µM): 0.859; relative viability (LXF-289; first compound 0.3162 µM): 0.79; relative viability (NCI-H1944; first compound 0.01 µM): 1.11; relative viability (NCI-H1944; first compound 0.03162 µM): 1.18; relative viability (NCI-H1944; first compound 0.3162 µM): 1.17
